# In patent US20120132797A1, “MEANS AND METHODS FOR DIAGNOSING THYROID DISORDERS” (BASF SE, priority 2009, published 2012):
# Test system: Wistar (Crl:WI(Han)) rats
# Experiment: Mass spectrometry-based plasma metabolite profiling of rats treated with known inducers of thyroid function impairment
# Format: in vivo, rat
# Settings: ratio of group medians vs controls
# Source text: At the beginning of the study the animals were 10-11 weeks old. Each dose group in the studies consisted of five rats per sex, and was compared with controls (10 rats per sex). […] The dose levels were chosen to show the typical overt (high dose) and slight (low dose) toxicological symptoms of the substances as described in the literature or in BASF internal study reports.
# Blood samples were withdrawn from the retro-orbital sinus in all rats under isoflurane anesthesia on study days 7, 14 and 28 after a fasting period of 16-20 hours.
# For mass spectrometry-based metabolite profiling analysis, plasma samples were extracted by a proprietary method which delivers a polar and a non-polar fraction. For GC-MS analysis, the non-polar fraction was treated with methanol under acidic conditions to yield the fatty acid methyl esters. Both fractions were further derivatised with Omethyl-hydroxyamine hydrochloride and pyridine to convert oxo groups to Omethyloximes and subsequently with a silylating agent before analysis.
# In LC-MS/MS analysis, both fractions were reconstituted in appropriate solvent mixtures. HPLC was performed by gradient elution on reversed phase separation columns. For mass spectrometric detection metanomics proprietary technology was applied, which allows target and high sensitivity MRM (Multiple Reaction Monitoring) profiling in parallel to a full screen analysis. […] Moreover, several hundred additional analytes giving a fingerprint of the sample were included in the methods.
# Following comprehensive analytical validation steps, the data for each analyte were normalized against data from pool samples. These samples were run in parallel through the whole process to account for process variability.
# The sex- and day-stratified heteroscedastic t-test (“Welch test”) was applied to compare treated groups with respective controls. p-Values and ratios of corresponding group medians were collected as metabolic profiles and fed into a database.
# [1] = female rats, fh7 (study day 7), Table 3
# [2] = female rats, fh14 (study day 14), Table 3
# [3] = female rats, fh28 (study day 28), Table 3
# [4] = male rats, mh7 (study day 7), Table 4
# [5] = male rats, mh14 (study day 14), Table 4
# [6] = male rats, mh28 (study day 28), Table 4
smiles,measurement,setting,value
CCC(CC)Nc1c([N+](=O)[O-])cc(C)c(C)c1[N+](=O)[O-] [Pendimethalin],"Arachidonic acid (C20:cis[58,11,14]4)",[1],2.07
same,Behenic acid (C22:0),[1],2.05
same,Cholesterol,[1],2.09
same,Cysteine,[1],0.52
same,"Docosahexaenoic acid (C22:cis[4,7,10,13,16,19]6)",[1],1.85
same,Dodecanol,[1],1.24
same,Eicosanoic acid (C20:0),[1],1.52
same,Glycerol phosphate,[1],1.91
same,Heptadecanoic acid (C17:0),[1],1.35
same,"Linoleic acid (C18:cis[9,12]2)",[1],1.38
same,Nervonic acid C24:(cis[15]1),[1],3.51
same,Palmitic acid (C16:0),[1],1.49
same,"Sphingomyelin (d18:1, C16:0)",[1],2.01
same,Stearic acid (C18:0),[1],1.86
same,Threonic acid,[1],1.85
same,"dihomo-gamma-Linolenic acid (C20:cis[8,11,14]3)",[1],1.77
same,erythro-Sphingosine,[1],3.26
same,"gamma-Linolenic acid (C18:cis[6,9,12]3)",[1],1.61
same,myo-Inositol-2-phosphate,[1],2.82
same,threo-Sphingosine,[1],2.95
same,"Arachidonic acid (C20:cis[58,11,14]4)",[2],2.24
same,Behenic acid (C22:0),[2],1.89
same,Cholesterol,[2],2.17
same,Cysteine,[2],0.56
same,"Docosahexaenoic acid (C22:cis[4,7,10,13,16,19]6)",[2],1.82
same,Dodecanol,[2],1.31
same,Eicosanoic acid (C20:0),[2],1.82
same,Glycerol phosphate,[2],1.93
same,Heptadecanoic acid (C17:0),[2],1.56
same,"Linoleic acid (C18:cis[9,12]2)",[2],1.63
same,Nervonic acid C24:(cis[15]1),[2],2.62
same,Palmitic acid (C16:0),[2],1.81
same,"Sphingomyelin (d18:1, C16:0)",[2],1.64
same,Stearic acid (C18:0),[2],1.97
same,Threonic acid,[2],1.79
same,"dihomo-gamma-Linolenic acid (C20:cis[8,11,14]3)",[2],3.05
same,erythro-Sphingosine,[2],2.60
same,"gamma-Linolenic acid (C18:cis[6,9,12]3)",[2],2.29
same,myo-Inositol-2-phosphate,[2],2.74
same,threo-Sphingosine,[2],2.67
same,"Arachidonic acid (C20:cis[58,11,14]4)",[3],2.31
same,Behenic acid (C22:0),[3],1.94
same,Cholesterol,[3],2.44
same,Cysteine,[3],0.95
same,"Docosahexaenoic acid (C22:cis[4,7,10,13,16,19]6)",[3],1.85
same,Dodecanol,[3],1.31
same,Eicosanoic acid (C20:0),[3],1.61
same,Glycerol phosphate,[3],2.06
same,Heptadecanoic acid (C17:0),[3],1.63
same,"Linoleic acid (C18:cis[9,12]2)",[3],1.36
same,Nervonic acid C24:(cis[15]1),[3],2.54
same,Palmitic acid (C16:0),[3],1.67
same,"Sphingomyelin (d18:1, C16:0)",[3],1.58
same,Stearic acid (C18:0),[3],2.12
same,Threonic acid,[3],2.05
same,"dihomo-gamma-Linolenic acid (C20:cis[8,11,14]3)",[3],2.43
same,erythro-Sphingosine,[3],2.81
same,"gamma-Linolenic acid (C18:cis[6,9,12]3)",[3],2.57
same,myo-Inositol-2-phosphate,[3],2.66
same,threo-Sphingosine,[3],2.49
same,Behenic acid (C22:0),[4],1.94
same,Cholesterol,[4],1.67
same,Citrate,[4],0.86
same,Cytosine,[4],0.79
same,"Galactose, lipid fraction",[4],1.81
same,Glycerol phosphate,[4],2.06
same,Glycine,[4],1.11
same,Lignoceric acid (C24:0),[4],2.32
same,Mannose,[4],1.31
same,Nervonic acid C24:(cis[15]1),[4],2.90
same,"Phospha-tidylcholine (C18:0, 18:2)",[4],1.26
same,"Sphingomyelin (d18:1, C16:0)",[4],2.10
same,Stearic acid (C18:0),[4],1.64
same,Threonic acid,[4],1.39
same,"dihomo-gamma-Linolenic acis (C20:cis[8,11,14]3)",[4],2.92
same,erythro-Sphingosine,[4],2.78
same,myo-Inositol-2-phosphate,[4],3.25
same,threo-Sphingosine,[4],2.96
same,Behenic acid (C22:0),[5],1.90
same,Cholesterol,[5],2.03
same,Citrate,[5],0.83
same,Cytosine,[5],0.92
same,"Galactose, lipid fraction",[5],2.03
same,Glycerol phosphate,[5],2.38
same,Glycine,[5],1.15
same,Lignoceric acid (C24:0),[5],2.93
same,Mannose,[5],1.39
same,Nervonic acid C24:(cis[15]1),[5],2.99
same,"Phospha-tidylcholine (C18:0, 18:2)",[5],1.25
same,"Sphingomyelin (d18:1, C16:0)",[5],1.97
same,Stearic acid (C18:0),[5],2.28
same,Threonic acid,[5],1.47
same,"dihomo-gamma-Linolenic acis (C20:cis[8,11,14]3)",[5],3.53
same,erythro-Sphingosine,[5],3.33
same,myo-Inositol-2-phosphate,[5],3.57
same,threo-Sphingosine,[5],3.52
same,Behenic acid (C22:0),[6],1.79
same,Cholesterol,[6],2.29
same,Citrate,[6],0.87
same,Cytosine,[6],0.81
same,"Galactose, lipid fraction",[6],2.23
same,Glycerol phosphate,[6],2.34
same,Glycine,[6],1.32
same,Lignoceric acid (C24:0),[6],2.42
same,Mannose,[6],1.40
same,Nervonic acid C24:(cis[15]1),[6],3.07
same,"Phospha-tidylcholine (C18:0, 18:2)",[6],1.32
same,"Sphingomyelin (d18:1, C16:0)",[6],2.03
same,Stearic acid (C18:0),[6],2.12
same,Threonic acid,[6],1.85
same,"dihomo-gamma-Linolenic acis (C20:cis[8,11,14]3)",[6],2.76
same,erythro-Sphingosine,[6],2.69
same,myo-Inositol-2-phosphate,[6],2.79
same,threo-Sphingosine,[6],2.73
